Measurements published in US20260274892A1, “MACROCYCLIC BROAD SPECTRUM ANTIBIOTICS” (RQx Pharmaceuticals, Inc., priority 2017, published 2026).

Assays:
[1] = tested on: Escherichia coli ATCC 25922; experiment: Minimum inhibitory concentration (MIC), CLSI broth micro-dilution, E. coli; type: cell-based; conditions: Escherichia coli, ATCC25922, 22 h, Table 6, cation adjusted Mueller Hinton Broth + 0.002% Tween-80, 35° C.
Summary of the method: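 Colonies grown 20 h at 35° C on Trypticase Soy agar (MRSA) or Luria agar (E. coli) were suspended in cation-adjusted Mueller Hinton broth with 0.002% Tween-80. Suspensions were added at OD600 0.0005 to 10-point twofold compound dilutions, then incubated 22 h at 35° C.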

[2] = tested on: Methicillin Resistant Staphylococcus aureus strain USA 200; experiment: Minimum inhibitory concentration (MIC), CLSI broth micro-dilution, S. aureus; type: cell-based; conditions: Staphylococcus aureus, MRSA / USA200; Table 6; MRSA USA 200; cation adjusted Mueller Hinton Broth + 0.002% Tween-80; 35° C., 22 hours
Protocol: In vitro antimicrobial activity of each compound was determined by measuring minimal inhibitor concentrations (MICs) using the broth micro-dilution technique as approved by the Clinical and Laboratory Standards Institute (CLSI) (Methods for Dilution Antimicrobial Susceptibility Tests for Bacteria that Grow Aerobically; Approved Standard-Eighth Edition. CLSI document M07-A8. Wayne, PA: Clinical and Laboratroy Standards; 2009). Antibacterial activity was measure against two strains of bacteria: a Methicillin Resistant Staphylococcus aureus strain USA 200, (S. aureus) and Escherichia coli ATCC 25922 (E. coli), a clinically relevant Gram-negative strain. Cells were inoculated onto plates of Trypyticase Soy Agar or Luria Agar respectively and grown at 35° C. for 20 hours. Inocula suspensions were prepared by scraping cells into 1 mL of testing media (cation adjusted Mueller Hinton Broth supplemented with 0.002% v/v Tween-80) and diluting to a final OD600nm of 0.01.
Test compounds were prepared in DMSO at a concentration of 10 mg/mL. In protocol 1, the compound stocks were diluted into testing media at a concentration of 64 µg/ml and serial 2-fold dilutions were made in the same media, in 96-well U bottom microtiter dishes, for a total of 10 compound concentrations. In protocol 2, the compound stocks were diluted into testing media at a concentration of 4 µg/mL and serial 2-fold dilutions were made in the same media, in 96-well U bottom microtiter dishes, for a total of 10 compound concentrations. In protocol 3, compound stocks were diluted into testing media at a concentration of 0.5 μg/mL, with serial 2-fold dilutions conducted as described above. In protocol 4, compound stocks were diluted into testing media at a concentration of […], with serial 2-fold dilutions conducted as described above. Inocula suspensions were added to the 2-fold serial dilutions of test compounds to a final density of GD OD600nm of 0.0005 and incubated at 35° C. for 22 hours.

| SMILES | MIC [1] [µM] | MIC [2] [µM] |
| --- | --- | --- |
| COC(C)(C)c1ccc(-c2nc(C)c(C(=O)N[C@@H](CCN)C(=O)N(C)[C@@H]3C(=O)N[C@@H](C)C(=O)N[C@H](C(=O)NCC#N)Cc4ccc(OCCN)c(c4)-c4cc3ccc4OCCN)c(C)n2)cc1 (racemic) [Compound 267, rac-(8S,11S,14S)-3,18-bis(2-aminoethoxy)-N-(cyanomethyl)-11-methyl-14-[methyl-[rac-(2S)-4-amino-2-[[2-[4-(1-methoxy-1-methyl-ethyl)phenyl]-4,6-dimethyl-pyrimidine-5-carbonyl]amino]butanoyl]amino]-10,13-dioxo-9,12-diazatricyclo[13.3.1.12,6]icosa-1(18),2(20),3,5,15(19),16-hexaene-8-carboxamide] | 1 | 0.39 |
| Cc1nc(Cc2ccc(C(C)(C)C)cc2)nc(C)c1C(=O)N[C@@H](CCN)C(=O)N(C)[C@@H]1C(=O)N[C@@H](C)C(=O)N[C@H](C(=O)NCC#N)Cc2ccc(OCCN)c(c2)-c2cc1ccc2OCCN (racemic) [Compound 287, rac-(8S,11S,14S)-3,18-bis(2-aminoethoxy)-N-(cyanomethyl)-11-methyl-14-[methyl-[rac-(2S)-4-amino-2-[[2-[(4-tert-butylphenyl)methyl]-4,6-dimethyl-pyrimidine-5-carbonyl]amino]butanoyl]amino]-10,13-dioxo-9,12-diazatricyclo[13.3.1.12,6]icosa-1(18),2(20),3,5,15(19),16-hexaene-8-carboxamide] | 1 | 0.065 |
| Cc1cc(-c2ccc(OC3CCCCC3)cc2)nc(C)c1C(=O)N[C@@H](CCN)C(=O)N(C)[C@@H]1C(=O)N[C@@H](C)C(=O)N[C@H](C(=O)NCC#N)Cc2ccc(OCCN)c(c2)-c2cc1ccc2OCCN (racemic) [Compound 364, rac-(8S,11S,14S)-3,18-bis(2-aminoethoxy)-N-(cyanomethyl)-11-methyl-14-[methyl-[rac-(2S)-4-amino-2-[[6-[4-(cyclohexoxy)phenyl]-2,4-dimethyl-pyridine-3-carbonyl]amino]butanoyl]amino]-10,13-dioxo-9,12-diazatricyclo[13.3.1.12,6]icosa-1(18),2(20),3,5,15(19),16-hexaene-8-carboxamide] | 0.25 | 0.016 |
| Cc1nc(-c2ccc(N3CCC(C(C)(C)C)CC3)cc2)nc(C)c1C(=O)N[C@@H](CCN)C(=O)N(C)[C@@H]1C(=O)N[C@@H](C)C(=O)N[C@H](C(=O)NCC#N)Cc2ccc(OCCN)c(c2)-c2cc1ccc2OCCN (racemic) [Compound 320, rac-(8S,11S,14S)-3,18-bis(2-aminoethoxy)-N-(cyanomethyl)-11-methyl-14-[methyl-[rac-(2S)-4-amino-2-[[2-[4-(4-tert-butyl-1-piperidyl)phenyl]-4,6-dimethyl-pyrimidine-5-carbonyl]amino]butanoyl]amino]-10,13-dioxo-9,12-diazatricyclo[13.3.1.12,6]icosa-1(18),2(20),3,5,15(19),16-hexaene-8-carboxamide] | 0.19 | 0.016 |
| Cc1nc(-c2ccc(N3CCCCC3)cc2)nc(C)c1C(=O)N[C@@H](CCN)C(=O)N(C)[C@@H]1C(=O)N[C@@H](C)C(=O)N[C@H](C(=O)NCC#N)Cc2ccc(OCCN)c(c2)-c2cc1ccc2OCCN (racemic) [Compound 324, rac-(8S,11S,14S)-3,18-bis(2-aminoethoxy)-N-(cyanomethyl)-11-methyl-14-[methyl-[rac-(2S)-4-amino-2-[[4,6-dimethyl-2-[4-(1-piperidyl)phenyl]pyrimidine-5-carbonyl]amino]butanoyl]amino]-10,13-dioxo-9,12-diazatricyclo[13.3.1.12,6]icosa-1(18),2(20),3,5,15(19),16-hexaene-8-carboxamide] | 0.13 | 0.047 |
| Cc1nc(-c2ccc(COC(C)(C)C)cc2)nc(C)c1C(=O)N[C@@H](CCN)C(=O)N(C)[C@@H]1C(=O)N[C@@H](C)C(=O)N[C@H](C(=O)NCC#N)Cc2ccc(OCCN)c(c2)-c2cc1ccc2OCCN (racemic) [Compound 343, rac-(8S,11S,14S)-3,18-bis(2-aminoethoxy)-N-(cyanomethyl)-11-methyl-14-[methyl-[rac-(2S)-4-amino-2-[[2-[4-(tert-butoxymethyl)phenyl]-4,6-dimethyl-pyrimidine-5-carbonyl]amino]butanoyl]amino]-10,13-dioxo-9,12-diazatricyclo[13.3.1.12,6]icosa-1(18),2(20),3,5,15(19),16-hexaene-8-carboxamide] | 0.75 | 0.13 |
| CCCCCCCc1ccc(C(=O)N[C@H](CCN)C(=O)N(C)[C@@H]2C(=O)N[C@@H](C)C(=O)N[C@H](C(=O)NCC#N)Cc3ccc(OCCN)c(c3)-c3cc2ccc3OCCN)c(C)c1 (racemic) [Compound 456, rac-(8S,11S,14S)-3,18-bis(2-aminoethoxy)-N-(cyanomethyl)-11-methyl-14-[methyl-[rac-(2R)-4-amino-2-[(4-heptyl-2-methyl-benzoyl)amino]butanoyl]amino]-10,13-dioxo-9,12-diazatricyclo[13.3.1.12,6]icosa-1(18),2(20),3,5,15(19),16-hexaene-8-carboxamide] | 3.3 | 0.56 |
| Cc1nc(-n2ccc(C(C)(C)C)cc2=O)nc(C)c1C(=O)N[C@@H](CCN)C(=O)N(C)[C@@H]1C(=O)N[C@@H](C)C(=O)N[C@H](C(=O)NCC#N)Cc2ccc(OCCN)c(c2)-c2cc1ccc2OCCN (racemic) [Compound 319, rac-(8S,11S,14S)-3,18-bis(2-aminoethoxy)-N-(cyanomethyl)-11-methyl-14-[methyl-[rac-(2S)-4-amino-2-[[2-(4-tert-butyl-2-oxo-1-pyridyl)-4,6-dimethyl-pyrimidine-5-carbonyl]amino]butanoyl]amino]-10,13-dioxo-9,12-diazatricyclo[13.3.1.12,6]icosa-1(18),2(20),3,5,15(19),16-hexaene-8-carboxamide] | 8 | 1 |
| CCC(C)(C)c1ccc(-c2nc(C)c(C(=O)N[C@@H](CCN)C(=O)N(C)[C@@H]3C(=O)N[C@@H](C)C(=O)N[C@H](C(=O)NCC#N)Cc4ccc(OCCN)c(c4)-c4cc3ccc4OCCN)c(C)n2)cc1 (racemic) [Compound 261, rac-(8S,11S,14S)-3,18-bis(2-aminoethoxy)-N-(cyanomethyl)-11-methyl-14-[methyl-[rac-(2S)-4-amino-2-[[2-[4-(1,1-dimethylpropyl)phenyl]-4,6-dimethyl-pyrimidine-5-carbonyl]amino]butanoyl]amino]-10,13-dioxo-9,12-diazatricyclo[13.3.1.12,6]icosa-1(18),2(20),3,5,15(19),16-hexaene-8-carboxamide] | 0.1 | 0.014 |
| CCc1nc(-c2ccc(C(C)(C)C)cc2)nc(C)c1C(=O)N[C@@H](CCN)C(=O)N(C)[C@@H]1C(=O)N[C@@H](C)C(=O)N[C@H](C(=O)NCC#N)Cc2ccc(OCCN)c(c2)-c2cc1ccc2OCCN [Compound 485] | 0.5 | 0.023 |
| CC(C)=C(C)c1ccc(-c2nc(C)c(C(=O)N[C@@H](CCN)C(=O)N(C)[C@@H]3C(=O)N[C@@H](C)C(=O)N[C@H](C(=O)NCC#N)Cc4ccc(OCCN)c(c4)-c4cc3ccc4OCCN)c(C)n2)cc1 (racemic) [Compound 272, rac-(8S,11S,14S)-3,18-bis(2-aminoethoxy)-N-(cyanomethyl)-11-methyl-14-[methyl-[rac-(2S)-4-amino-2-[[2-[4-(1,2-dimethylprop-1-enyl)phenyl]-4,6-dimethyl-pyrimidine-5-carbonyl]amino]butanoyl]amino]-10,13-dioxo-9,12-diazatricyclo[13.3.1.12,6]icosa-1(18),2(20),3,5,15(19),16-hexaene-8-carboxamide] | 0.065 | 0.012 |
| CCCCc1ccc(-c2nc(C)c(C(=O)N[C@@H](CCN)C(=O)N(C)[C@@H]3C(=O)N[C@@H](C)C(=O)N[C@H](C(=O)NCC#N)Cc4ccc(OCCN)c(c4)-c4cc3ccc4OCCN)c(C)n2)cc1CCCC (racemic) [Compound 268, rac-(8S,11S,14S)-3,18-bis(2-aminoethoxy)-N-(cyanomethyl)-11-methyl-14-[methyl-[rac-(2S)-4-amino-2-[[2-(3,4-dibutylphenyl)-4,6-dimethyl-pyrimidine-5-carbonyl]amino]butanoyl]amino]-10,13-dioxo-9,12-diazatricyclo[13.3.1.12,6]icosa-1(18),2(20),3,5,15(19),16-hexaene-8-carboxamide] | 0.12 | 0.016 |
